Laboratory results from ChEMBL document CHEMBL1649426 (J Med Chem, 2011).

Columns and labels:
[1] = test system: Human immunodeficiency virus 1; experiment: Antiviral activity against HIV1 LAI infected in human MT2 cells assessed as inhibition of virus-induced cytopathic effect by MTT assay; assay type: functional, organism-based; conditions: Human immunodeficiency virus 1, LAI
Protease = Protease (Human immunodeficiency virus 1, UniProt Q9YQ12); experiment: Inhibition of HIV1 protease; assay type: single protein
[2] = test system: Human immunodeficiency virus 1; experiment: Antiviral activity against wild type HIV-1 ERS104 pre infected in human PHA-PBM cells assessed as inhibition of p24 Gag protein production; assay type: functional, organism-based; conditions: Human immunodeficiency virus 1, ERS104pre, PBMC
[3] = test system: Human immunodeficiency virus 1; experiment: Antiviral activity against HIV-1 MDR/B infected in human PHA-PBM cells assessed as inhibition of p24 Gag protein production; assay type: functional, organism-based; conditions: Human immunodeficiency virus 1, MDR/B, PBMC
[4] = test system: Human immunodeficiency virus 1; experiment: Antiviral activity against HIV-1 MDR/C infected in human PHA-PBM cells assessed as inhibition of p24 Gag protein production; assay type: functional, organism-based; conditions: Human immunodeficiency virus 1, MDR/C, PBMC
[5] = test system: Human immunodeficiency virus 1; experiment: Antiviral activity against HIV-1 MDR/G infected in human PHA-PBM cells assessed as inhibition of p24 Gag protein production; assay type: functional, organism-based; conditions: Human immunodeficiency virus 1, MDR/G, PBMC
[6] = test system: Human immunodeficiency virus 1; experiment: Antiviral activity against HIV-1 MDR/TM infected in human PHA-PBM cells assessed as inhibition of p24 Gag protein production; assay type: functional, organism-based; conditions: Human immunodeficiency virus 1, MDR/TM, PBMC
[7] = test system: Human immunodeficiency virus 1; experiment: Antiviral activity against HIV-1 MDR/MM infected in human PHA-PBM cells assessed as inhibition of p24 Gag protein production; assay type: functional, organism-based; conditions: Human immunodeficiency virus 1, MDR/MM, PBMC
[8] = test system: Human immunodeficiency virus 1; experiment: Antiviral activity against HIV-1 MDR/JSL infected in human PHA-PBM cells assessed as inhibition of p24 Gag protein production; assay type: functional, organism-based; conditions: Human immunodeficiency virus 1, MDR/JSL, PBMC

Chain of Protease (Q9YQ12 whole entry): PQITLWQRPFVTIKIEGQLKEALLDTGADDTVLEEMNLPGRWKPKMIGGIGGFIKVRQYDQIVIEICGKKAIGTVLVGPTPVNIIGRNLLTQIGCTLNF

Row | SMILES | IC50 [1] | Ki (Protease) | also measured
1 | CC(C)(C)NC(=O)[C@@H]1C[C@@H]2CCCC[C@@H]2CN1C[C@@H](O)[C@H](Cc1ccccc1)NC(=O)[C@H](CC(N)=O)NC(=O)c1ccc2ccccc2n1 | 15 nM |  | 
2 | CC(C)CN(C[C@@H](O)[C@H](Cc1ccccc1)NC(=O)O[C@H]1CCOC1)S(=O)(=O)c1ccc(N)cc1 | 30 nM |  | 
3 | COc1ccc(S(=O)(=O)N(CC(C)C)C[C@@H](O)[C@H](Cc2ccccc2)NC(=O)O[C@H]2CCO[C@H]3OCC[C@H]32)cc1 | 0.5 nM | 0.0027 nM | EC50 [2]: 1.9 nM; EC50 [3]: 14.5 nM; EC50 [4]: 3.7 nM; EC50 [5]: 2.6 nM; EC50 [6]: 27.5 nM; EC50 [7]: 5 nM; EC50 [8]: 27.5 nM
4 | COc1ccc(S(=O)(=O)N(CC(C)C)C[C@@H](O)[C@H](Cc2ccccc2)NC(=O)O[C@@H]2CCO[C@@H]3OCC[C@@H]32)cc1 | 19 nM | 0.068 nM | 
5 | COc1ccc(S(=O)(=O)N(CC(C)C)C[C@@H](O)[C@H](Cc2ccccc2)NC(=O)O[C@H]2CCC[C@H]3OCC[C@@H]23)cc1 | 8 nM | 0.005 nM | 
6 | COc1ccc(S(=O)(=O)N(CC(C)C)C[C@@H](O)[C@H](Cc2ccccc2)NC(=O)O[C@H]2CCO[C@H]3CCC[C@H]32)cc1 |  | 1.43 nM | 
7 | COc1ccc(S(=O)(=O)N(CC(C)C)C[C@@H](O)[C@H](Cc2ccccc2)NC(=O)O[C@H]2CCC[C@H]3CCC[C@H]32)cc1 | > 1000 nM | 9 nM | 
8 | COc1ccc(S(=O)(=O)N(CC(C)C)C[C@@H](O)[C@H](Cc2ccccc2)NC(=O)O[C@H]2CCO[C@H]3COC[C@H]32)cc1 | > 1000 nM | 5.3 nM | 
9 | COc1ccc(S(=O)(=O)N(CC(C)C)C[C@@H](O)[C@H](Cc2ccccc2)NC(=O)O[C@H]2CO[C@H]3OCC[C@H]3C2)cc1 |  | 0.11 nM | 
10 | CC(C)CN(C[C@@H](O)[C@H](Cc1ccccc1)NC(=O)O[C@H]1CCO[C@H]2OCC[C@H]21)S(=O)(=O)c1ccc(N)cc1 | 6.5 nM | 0.01 nM | 
11 | CC(C)CN(C[C@@H](O)[C@H](Cc1ccccc1)NC(=O)O[C@H]1CCO[C@H]2OCC[C@H]21)S(=O)(=O)c1ccc(CO)cc1 | 4.5 nM | 0.085 nM | 
12 | COC(=O)N[C@H](C(=O)N[C@@H](Cc1ccccc1)[C@@H](O)CN(Cc1ccc(-c2ccccn2)cc1)NC(=O)[C@@H](NC(=O)OC)C(C)(C)C)C(C)(C)C [ATAZANAVIR] |  |  | EC50 [2]: 2.7 nM; EC50 [3]: 470 nM; EC50 [4]: 39 nM; EC50 [5]: 19 nM; EC50 [6]: 75 nM; EC50 [7]: 205 nM; EC50 [8]: 293 nM
13 | Cc1cccc(C)c1OCC(=O)N[C@@H](Cc1ccccc1)[C@@H](O)C[C@H](Cc1ccccc1)NC(=O)[C@H](C(C)C)N1CCCNC1=O [LOPINAVIR] |  |  | EC50 [3]: > 1000 nM; EC50 [8]: > 1000 nM
